Consider 16 compounds from patent US9062041B2 (Bayer Intellectual Property GmbH, priority 2011, dated 2015).

The target of experiment [1] is EP2 subtype of the human PGE2 receptor (Homo sapiens, UniProt P43116). In words: cAMP antagonism test on the human EP2 receptor (HTRF cAMP detection). Type of experiment: cell-based. To be noted: hEP2 receptor, read-out: Antagonism hEP2 IC50. Summed up: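 Cells expressing human EP2 preincubated 20 min at RT with compound (0.8 nM–16.5 μM), then stimulated 60 min with PGE2 (3× solution 1.5 nM) in PBS-IBMX. After 20 min lysis, cAMP measured by competitive HTRF with cAMP-d2 and Eu cryptate anti-cAMP antibody (665/620 nm ratio).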
On the technique in general: In TR-FRET formats the signal depends on donor and acceptor labels being close together.

Experiment [2] addresses EP4 subtype of the human PGE2 receptor (Homo sapiens, UniProt P35408). Description: cAMP antagonism test on the human EP4 receptor (HTRF cAMP detection). The format is cell-based. To be noted: selectivity towards hEP4, IC50 measured by cAMP antagonism test. A digest of the protocol: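 Cells expressing human EP4 preincubated 20 min at RT with compound (0.8 nM–16.5 μM), then stimulated with PGE2 (0.3 nM in 3× solution, with IBMX) 60 min at RT. After lysis, cAMP measured by HTRF competition (665/620 nm ratio); antagonism seen as rise in FRET signal.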

For another experiment, the target named is T1, human PGD receptor (Homo sapiens, UniProt Q13258).
T1 sequence (Q13258 1-359): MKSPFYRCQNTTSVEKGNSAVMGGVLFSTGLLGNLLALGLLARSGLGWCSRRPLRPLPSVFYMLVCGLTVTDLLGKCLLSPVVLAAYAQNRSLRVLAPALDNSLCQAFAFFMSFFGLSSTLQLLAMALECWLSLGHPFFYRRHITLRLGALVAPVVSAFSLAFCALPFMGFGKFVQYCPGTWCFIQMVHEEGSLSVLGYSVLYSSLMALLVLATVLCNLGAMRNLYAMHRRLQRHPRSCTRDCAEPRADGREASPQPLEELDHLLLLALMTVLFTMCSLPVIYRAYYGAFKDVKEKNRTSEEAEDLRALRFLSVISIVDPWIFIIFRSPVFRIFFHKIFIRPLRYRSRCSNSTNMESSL
Description: cAMP antagonism test on the human prostaglandin D receptor (HTRF cAMP detection). The format is cell-based. To be noted: selectivity towards hDP, IC50 measured by cAMP antagonism test. A digest of the protocol: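 Cells pre-mixed with cAMP-d2 were preincubated with compound (0.8 nM–16.5 μM) for 20 min at RT, then stimulated with 3× PGD2 solution (6 nM, in PBS-IBMX) for 30 min at RT. After lysis (20 min), HTRF read at 665/620 nm; antagonism seen as rise in FRET ratio.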

A further experiment relates to cumulus-oocyte complexes. Description: Cumulus expansion test in vitro. Type of experiment: cell-based, mice (strain: B6D2F1). To be noted: for inhibition at 1 µM / inhibition at 0.5 µM: Mus musculus, 0.3 μM PGE2 for stimulation; for inhibition at 1 µM: read-out: % reduction at 1 μM (reduction in the cumulus expansion); for inhibition at 0.5 µM: read-out: % reduction at 0.5 μm (reduction in the cumulus expansion). Here is the method:
4.2. Cumulus Expansions Test In Vitro In immature female mice (strain: B6D2F1 from Charles River), at an age of 14-18 days, the folliculogenesis was induced by a single administration (intraperitoneal) of 10 IU of PMSG (pregnant mare serum gonadotropin; Sigma G-4877, Lot 68H0909). 47-50 hours after the injection, the ovaries were removed and the cumulus-oocyte complexes removed. At this stage, the cumulus complex is not yet expanded. The cumulus-oocyte complexes were now incubated for 20-24 hours with prostaglandin E2 (PGE) (0.3 μM), vehicle control (ethanol) or test substances. Medium: alpha-MEM medium with 0.1 mM IBMX, pyruvate (0.23 mM), glutamine (2 mM), pen/strep 100 IU/ml pen. and 100 μg/ml strep.), HSA (8 mg/ml) and foetal bovine serum (FBS, 10%). The cumulus expansion was then established through the subdivision into four stages (after Vanderhyden et al. Dev Biol. 1990 August; 140(2):307-317).

Chain of EP2 subtype of the human PGE2 receptor (P43116 whole entry): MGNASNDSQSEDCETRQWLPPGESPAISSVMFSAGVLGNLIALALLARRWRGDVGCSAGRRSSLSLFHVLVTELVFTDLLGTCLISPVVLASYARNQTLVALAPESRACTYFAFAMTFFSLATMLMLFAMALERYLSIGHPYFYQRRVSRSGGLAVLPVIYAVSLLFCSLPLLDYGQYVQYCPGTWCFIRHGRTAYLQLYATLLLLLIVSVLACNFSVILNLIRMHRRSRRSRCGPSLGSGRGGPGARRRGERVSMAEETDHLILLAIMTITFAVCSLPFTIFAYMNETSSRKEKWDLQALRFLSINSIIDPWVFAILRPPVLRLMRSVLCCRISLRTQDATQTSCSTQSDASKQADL
Chain of EP4 subtype of the human PGE2 receptor (P35408 whole entry): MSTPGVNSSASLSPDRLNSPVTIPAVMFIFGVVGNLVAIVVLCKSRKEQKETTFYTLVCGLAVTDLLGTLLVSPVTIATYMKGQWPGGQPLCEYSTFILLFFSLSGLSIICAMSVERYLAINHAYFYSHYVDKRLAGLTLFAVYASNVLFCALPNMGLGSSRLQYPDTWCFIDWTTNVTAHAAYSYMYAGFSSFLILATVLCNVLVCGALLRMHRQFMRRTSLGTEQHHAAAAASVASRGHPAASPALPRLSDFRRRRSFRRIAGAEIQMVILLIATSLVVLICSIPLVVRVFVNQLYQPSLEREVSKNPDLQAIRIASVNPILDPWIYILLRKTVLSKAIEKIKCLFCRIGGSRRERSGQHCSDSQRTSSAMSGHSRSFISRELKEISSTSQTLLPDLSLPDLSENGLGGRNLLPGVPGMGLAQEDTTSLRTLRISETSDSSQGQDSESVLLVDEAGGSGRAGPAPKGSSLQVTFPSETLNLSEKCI

What is called IC50 is the concentration that gives 50% inhibition. Regarding `Cc1c(C(=O)NCC(F)(F)F)ccc2nn(CC3CCN(C(=O)c4ccc(Oc5ccc(C(F)(F)F)nc5)cc4)CC3)cc12` [Example 303, 4-methyl-N-(2,2,2-trifluoroethyl)-2-{[1-(4-{[6-(trifluoromethyl)pyridin-3-yl]-oxy}benzoyl)piperidin-4-yl]methyl}-2H-indazol-5-carboxamide], in experiment [1], the IC50 turned out to be 13.9 nM. For the same compound, the “Selectivity hEP2/hEP4” value in experiment [2] is “xxx (xxx > 100)”. In addition, on human PGD receptor, the “Selectivity hEP2/hDP” value was “xxx (xxx > 100)”. Besides, in the experiment with cumulus-oocyte complexes, the inhibition at 1 µM came out at 47% and the inhibition at 0.5 µM worked out at 38%.
Take `Cc1c(C(=O)NCC(F)(F)F)ccc2nn(CC3CCN(C(=O)c4ccc(Oc5ccc(C(F)(F)F)cc5)cc4)CC3)cc12` [Example 291, 4-methyl-N-(2,2,2-trifluoroethyl)-2-[(1-{4-[4-(trifluoromethyl)phenoxy]-benzoyl}piperidin-4-yl)methyl]-2H-indazol-5-carboxamide]: the IC50 in experiment [1] came out at 5.94 nM. The “Selectivity hEP2/hEP4” value in experiment [2] was “xxx (xxx > 100)”. The “Selectivity hEP2/hDP” value on human PGD receptor was “xxx (xxx > 100)”. For the same compound, in the experiment on cumulus-oocyte complexes, the inhibition at 1 µM amounted to 73% and the inhibition at 0.5 µM turned out to be 76%.
For `CC(C)Oc1ccc2c(=O)c3cc(C(=O)O)ccc3oc2c1` [AH6809, reference compound], in the experiment with cumulus-oocyte complexes (concentration of 100-200 μM, PGE2 0.3 μM), the “suppression of the cumulus expansion” value is “ca. 30%”.
Consider `COCCNC(=O)c1cc2cn(CC3CN(C(=O)c4ccc(C(F)(F)F)c(F)c4)C3)nc2cc1C` [Example 184, 2-({1-[3-fluoro-4-(trifluoromethyl)benzoyl]azetidin-3-yl}methyl)-N-(2-methoxy-ethyl)-6-methyl-2H-indazol-5-carboxamide], for which the IC50 in experiment [1] came out at 76.8 nM. For the same compound, the “Selectivity hEP2/hEP4” value in experiment [2] was “xxx (xxx > 100)”. On human PGD receptor, the “Selectivity hEP2/hDP” value is reported as “xxx (xxx > 100)”.
For `Cc1c(C(=O)NCCOC(C)C)ccc2nn(CC3CCN(C(=O)c4ccc(-c5ccc(F)cc5)cc4)CC3)cc12` [Example 100, 2-({1-[(4′-fluoro-biphenyl-4-yl)-carbonyl]piperidin-4-yl}methyl)-N-(2-isopropoxyethyl)-4-methyl-2H-indazol-5-carboxamide], the 50% inhibitory concentration (IC50) in experiment [1] amounted to 6.21 nM. For the same compound, the “Selectivity hEP2/hEP4” value in experiment [2] was “xxx (xxx > 100)”. Further, the “Selectivity hEP2/hDP” value at human PGD receptor is “xxx (xxx > 100)”.
Consider `Cc1c(C(=O)NCC(F)(F)F)ccc2nn(CC3CCN(C(=O)c4ccc(Oc5cccc(C(F)(F)F)c5)cc4)CC3)cc12` [Example 308, 4-methyl-N-(2,2,2-trifluoroethyl)-2-[(1-{4-[3-(trifluoromethyl)phenoxy]-benzoyl}piperidin-4-yl)methyl]-2H-indazol-5-carboxamide], for which, in experiment [1], the concentration for half-maximal inhibition (IC50) was determined as 22.2 nM. Moreover, the “Selectivity hEP2/hEP4” value in experiment [2] was “xxx (xxx > 100)”. Also, on human PGD receptor, the “Selectivity hEP2/hDP” value was “xxx (xxx > 100)”.
For `COCCNC(=O)c1ccc2nn(CC3CCN(C(=O)c4ccc(-c5ccc(OC)cc5C)cc4)CC3)cc2c1C` [Example 370, N-(2-methoxyethyl)-2-({1-[(4′-methoxy-2′-methylbiphenyl-4-yl)carbonyl]-piperidin-4-yl}methyl)-4-methyl-2H-indazol-5-carboxamide], in experiment [1], the IC50 was 3.07 nM. Besides, the “Selectivity hEP2/hEP4” value in experiment [2] is “xxx (xxx > 100)”. Also, the “Selectivity hEP2/hDP” value on human PGD receptor is recorded as “xxx (xxx > 100)”.
`COCCNC(=O)c1ccc2nn(CC3CN(C(=O)c4ccc(Cl)cc4F)C3)cc2c1OC` [Example 257, 2-{[1-(4-chloro-2-fluorobenzoyl)azetidin-3-yl]methyl}-4-methoxy-N-(2-methoxyethyl)-2H-indazol-5-carboxamide]: the concentration for half-maximal inhibition (IC50) in experiment [1] was determined as 102 nM. The “Selectivity hEP2/hEP4” value in experiment [2] was “xxx (xxx > 100)”. In addition, the “Selectivity hEP2/hDP” value on human PGD receptor is on record as “xxx (xxx > 100)”.
Consider `COCCNC(=O)c1cc2cn(CC3CN(C(=O)c4cc(F)cc(F)c4)C3)nc2cc1C` [Example 179, 2-{[1-(3,5-Difluorobenzoyl)azetidin-3-yl]methyl}-N-(2-methoxyethyl)-6-methyl-2H-indazol-5-carboxamide], for which, in experiment [1], the IC50 stood at 2610 nM. For the same compound, in experiment [2], the “Selectivity hEP2/hEP4” value is “x (x: 1-10)”. Besides, the “Selectivity hEP2/hDP” value on human PGD receptor is recorded as “x (x: 1-10)”.
With `Cc1c(C(=O)NCCOCC(F)(F)F)ccc2nn(CC3CCN(C(=O)c4ccc(-c5ccc(F)cc5)cc4)CC3)cc12` [Example 94, 2-({1-[(4′-fluoro-biphenyl-4-yl)-carbonyl]piperidin-4-yl}methyl)-4-methyl-N-[2-(2,2,2-trifluoroethoxy)-ethyl]-2H-indazol-5-carboxamide], the IC50 in experiment [1] stood at 12.8 nM. Moreover, the “Selectivity hEP2/hEP4” value in experiment [2] is recorded as “xxx (xxx > 100)”. For the same compound, at human PGD receptor, the “Selectivity hEP2/hDP” value is “xxx (xxx > 100)”.
As for `Cc1c(C(=O)NCCS(C)(=O)=O)ccc2nn(CC3CCN(C(=O)c4ccc(Br)cc4)CC3)cc12` [Example 395, 2-{[1-(4-bromobenzoyl)piperidin-4-yl]methyl}-N-(2-mesylethyl)-4-methyl-2H-indazol-5-carboxamide], in experiment [1], the half-inhibitory concentration (IC50) was 30.4 nM. In experiment [2], the “Selectivity hEP2/hEP4” value is given as “xxx (xxx > 100)”. Moreover, the “Selectivity hEP2/hDP” value on human PGD receptor is “xxx (xxx > 100)”.
For `COCCNC(=O)c1ccc2nn(CC3CCN(C(=O)c4ccc(-n5cccn5)cc4)CC3)cc2c1C` [Example 38, N-(2-methoxyethyl)-4-methyl-2-({1-[4-(1H-pyrazol-1-yl)-benzoyl]piperidin-4-yl}methyl)-2H-indazol-5-carboxamide], the IC50 in experiment [1] turned out to be 28.1 nM. For the same compound, the “Selectivity hEP2/hEP4” value in experiment [2] is reported as “xxx (xxx > 100)”. For the same compound, the “Selectivity hEP2/hDP” value on human PGD receptor is “xxx (xxx > 100)”.
With `Cc1cc2nn(CC3CCN(C(=O)c4ccc(C(F)(F)F)cc4F)CC3)cc2cc1C(=O)NCCN1CCOCC1` [Example 80, 2-({1-[2-fluoro-4-(trifluoromethyl)-benzoyl]piperidin-4-yl}-methyl)-6-methyl-N-(2-morpholinoethyl)-2H-indazol-5-carboxamide], the IC50 in experiment [1] is 85.9 nM. The “Selectivity hEP2/hEP4” value in experiment [2] was “xxx (xxx > 100)”. On human PGD receptor, the “Selectivity hEP2/hDP” value is given as “xxx (xxx > 100)”.
Consider `COCCNC(=O)c1ccc2nn(CC3CCN(C(=O)c4ccc(-c5cnc(C)nc5)cc4)CC3)cc2c1C` [Example 379, N-(2-methoxyethyl)-4-methyl-2-({1-[4-(2-methylpyrimidin-5-yl)benzoyl]-piperidin-4-yl}methyl)-2H-indazol-5-carboxamide], for which the IC50 in experiment [1] was determined as 62.6 nM. In experiment [2], the “Selectivity hEP2/hEP4” value is “xxx (xxx > 100)”. The “Selectivity hEP2/hDP” value on human PGD receptor is given as “xxx (xxx > 100)”.
With `Cc1c(C(=O)NCC(F)(F)F)ccc2nn(CC3CCN(C(=O)c4ccc(-c5ccc(F)cn5)cc4)CC3)cc12` [Example 325, 2-({1-[4-(5-fluoropyridin-2-yl)benzoyl]piperidin-4-yl}methyl)-4-methyl-N-(2,2,2-trifluoroethyl)-2H-indazol-5-carboxamide], the half-inhibitory concentration (IC50) in experiment [1] stood at 321 nM. Also, the “Selectivity hEP2/hEP4” value in experiment [2] is reported as “xx (xx: 10-100)”. On human PGD receptor, the “Selectivity hEP2/hDP” value is on record as “xx (xx: 10-100)”.
Regarding `Cc1c(C(=O)NCC2CCCCO2)ccc2nn(CC3CCN(C(=O)c4ccc(Oc5ccc(C(F)(F)F)cc5)cc4)CC3)cc12` (single isomer, unassigned) [Example 416, (R or S)-4-methyl-N-(3,4,5,6-tetrahydro-2H-pyran-2-ylmethyl)-2-[(1-{4-[4-(trifluoromethyl)phenoxy]benzoyl}piperidin-4-yl)methyl]-2H-indazol-5-carboxamide], the IC50 in experiment [1] turned out to be 10.7 nM. In experiment [2], the “Selectivity hEP2/hEP4” value was “xxx (xxx > 100)”. Moreover, the “Selectivity hEP2/hDP” value at human PGD receptor is recorded as “xxx (xxx > 100)”.
